For assay [1], the target named is recombinant human NF-kappaB-inducing kinase (NIK/MAP3K14) (Homo sapiens (Human), UniProt Q99558). In words: Inhibition of auto-phosphorylation of recombinant human NIK/MAP3K14 (AlphaScreen). The settings on record: NIK auto-phosphorylation, 5 μM ATP, 1 nM NIK, 2 h at 25° C.; average of values. The class given is biochemical. The procedure, abridged: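 GST-tagged NIK (1 nM) auto-phosphorylated with 5 μM ATP for 2 h at 25° C. in 50 mM Tris pH 7.5, 5 mM MgCl2, 1 mM EGTA, 1 mM DTT, 0.1 mM Na3VO4, 0.01% Tween 20 (0.7% DMSO). Detected by AlphaScreen via anti-phospho-IKK Ser176/180 antibody; IC50 from sigmoidal fit of % inhibition versus log concentration.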
recombinant human NF-kappaB-inducing kinase (NIK/MAP3K14), sequence (Q99558 whole entry): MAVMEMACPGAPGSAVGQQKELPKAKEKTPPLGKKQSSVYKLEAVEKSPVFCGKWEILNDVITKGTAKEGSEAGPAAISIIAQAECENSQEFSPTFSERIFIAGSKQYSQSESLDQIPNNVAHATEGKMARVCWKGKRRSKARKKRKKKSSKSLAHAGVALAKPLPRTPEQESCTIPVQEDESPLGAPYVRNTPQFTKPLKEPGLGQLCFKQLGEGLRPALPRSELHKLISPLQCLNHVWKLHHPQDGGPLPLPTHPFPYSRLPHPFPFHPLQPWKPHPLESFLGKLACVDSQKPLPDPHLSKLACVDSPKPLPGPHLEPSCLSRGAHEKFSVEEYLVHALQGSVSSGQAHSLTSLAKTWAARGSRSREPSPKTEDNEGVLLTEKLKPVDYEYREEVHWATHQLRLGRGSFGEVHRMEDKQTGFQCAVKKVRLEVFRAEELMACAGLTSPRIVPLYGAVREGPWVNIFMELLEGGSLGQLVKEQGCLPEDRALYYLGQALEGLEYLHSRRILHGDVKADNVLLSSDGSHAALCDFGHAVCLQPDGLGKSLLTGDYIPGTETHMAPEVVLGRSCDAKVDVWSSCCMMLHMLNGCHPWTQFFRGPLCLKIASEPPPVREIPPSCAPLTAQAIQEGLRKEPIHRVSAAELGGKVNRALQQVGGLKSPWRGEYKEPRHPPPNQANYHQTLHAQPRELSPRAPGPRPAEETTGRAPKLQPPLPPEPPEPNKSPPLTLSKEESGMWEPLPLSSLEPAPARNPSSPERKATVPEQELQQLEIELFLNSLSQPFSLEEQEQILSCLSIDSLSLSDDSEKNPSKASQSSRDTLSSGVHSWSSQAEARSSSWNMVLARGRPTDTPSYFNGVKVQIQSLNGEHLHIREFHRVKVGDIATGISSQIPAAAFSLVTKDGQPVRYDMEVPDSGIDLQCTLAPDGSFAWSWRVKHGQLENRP

The subject of assay [2] is p-IKKα levels in L363 (NIK translocated multiple myeloma) cells. In words: Effect of compounds on p-IKKα levels in L363 cells (AlphaLISA SureFire Ultra). The class given is cell-based, human. The settings on record: Homo sapiens, L-363, 6 h, BAFF stimulated, MG132, 6 h, average of values, read-out: Assay 2 IC50. In a few lines:
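Inhibition of p-IKKα (Ser176/180) read by AlphaLISA after 6 h, 37 °C compound exposure (11-point 1:3 series, 0.3% DMSO) of L363 cells pre-incubated overnight ± 250 ng/ml BAFF and plated ± BAFF ± 10 μM MG132. Normalised to BAFF/MG132/DMSO and unstimulated controls; IC50 by sigmoidal fitting, duplicates.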

Regarding `Cc1nc(N)c2nc(-c3cccc(C#C[C@@](C)(O)c4nnc(C)o4)c3)ccc2n1` [Example 213, (R)-4-(3-(4-Amino-2-methylpyrido[3,2-d]pyrimidin-6-yl)phenyl)-2-(5-methyl-1,3,4-oxadiazol-2-yl)but-3-yn-2-ol], the IC50 in assay [1] worked out at 18 nM; in assay [2], 1080 nM.
For `CN1CC[C@@](O)(C#Cc2cccc(-c3nc4ncnc(N)c4s3)c2)C1=O` [Example 214, (R)-3-((3-(7-Aminothiazolo[4,5-d]pyrimidin-2-yl)phenyl)ethynyl)-3-hydroxy-1-methylpyrrolidin-2-one] the same measures were 320 nM and more than 5000 nM.
For `Cc1nc(N)c2c(n1)CCN(c1cccc(C#C[C@]3(O)CCN(C)C3=O)c1)C2` [Example 215, (R)-3-((3-(4-Amino-2-methyl-7,8-dihydropyrido[4,3-d]pyrimidin-6(5H)-yl)phenyl)ethynyl)-3-hydroxy-1-methylpyrrolidin-2-one] the same measures were 16 nM and 900 nM.
The corresponding values for `[2H]C([2H])([2H])N1CC[C@@](O)(C#Cc2ccc(C)c(-c3nc4c(N)ncnc4s3)c2)C1=O` [Example 216, (R)-3-[2-[3-(7-Aminothiazolo[5,4-d]pyrimidin-2-yl)-4-methyl-phenyl]ethynyl]-3-hydroxy-1-(trideuteriomethyl)pyrrolidin-2-one] are not above 0.5 nM and 8.5 nM.
For `Cc1cc([C@](C)(O)C#Cc2ccc(C)c(-c3nc4c(N)ncnc4s3)c2)no1` [Example 217, (R)-4-[3-(7-Aminothiazolo[5,4-d]pyrimidin-2-yl)-4-methyl-phenyl]-2-(5-methylisoxazol-3-yl)but-3-yn-2-ol], the half-inhibitory concentration (IC50) in assay [1] was found to be 0.9 nM; in assay [2] it was 77 nM.
The corresponding values for `CN1CC[C@@](O)(C#Cc2cccc(-c3cn4cncc4c(=O)[nH]3)c2)C1=O` [Example 218, (R)-6-[3-[2-(3-Hydroxy-1-methyl-2-oxo-pyrrolidin-3-yl)ethynyl]phenyl]-7H-imidazo[1,5-a]pyrazin-8-one] are 78 nM and more than 5000 nM.
The corresponding values for `CN1CC[C@@](O)(C#Cc2cccc(-c3ccc4nccc(N)c4n3)c2)C1=O` [Example 219, (R)-3-((3-(8-Amino-1,5-naphthyridin-2-yl)phenyl)ethynyl)-3-hydroxy-1-methylpyrrolidin-2-one] are 240 nM and more than 5000 nM.
For `Cc1ccc(C#C[C@]2(O)CCN(C)C2=O)cc1N1CCc2ncnc(N)c2C1` [Example 220, (R)-3-((3-(4-Amino-7,8-dihydropyrido[4,3-d]pyrimidin-6(5H)-yl)-4-methylphenyl)ethynyl)-3-hydroxy-1-methylpyrrolidin-2-one] the same measures were 1.3 nM and 65 nM.
`CN1CC[C@@](O)(C#Cc2cccc(-c3ccc4nc[nH]c(=O)c4n3)c2)C1=O` [Example 221, (R)-6-(3-((3-Hydroxy-1-methyl-2-oxopyrrolidin-3-yl)ethynyl)phenyl)pyrido[3,2-d]pyrimidin-4(3H)-one]: the IC50 in assay [1] was 630 nM; in assay [2] it was more than 5000 nM.
For `CN1CC[C@@](O)(C#Cc2cccc(-c3ccc4ncnc(N5CCCC5)c4n3)c2)C1=O` [Example 222, (R)-3-Hydroxy-1-methyl-3-((3-(4-(pyrrolidin-1-yl)pyrido[3,2-d]pyrimidin-6-yl)phenyl)ethynyl)pyrrolidin-2-one] the same measures were 4.2 nM and 390 nM.
The corresponding values for `CN1CC[C@@](O)(C#Cc2cccc(N3CCCc4ncnc(N)c4C3)c2)C1=O` [Example 224, (R)-3-((3-(4-Amino-5,7,8,9-tetrahydro-6H-pyrimido[5,4-c]azepin-6-yl)phenyl)ethynyl)-3-hydroxy-1-methylpyrrolidin-2-one] are 250 nM and more than 5000 nM.
For `CN1CC[C@@](O)(C#Cc2cccc(-c3ccc4ncnc(N5CCCCC5)c4n3)c2)C1=O` [Example 225, (R)-3-Hydroxy-1-methyl-3-((3-(4-(piperidin-1-yl)pyrido[3,2-d]pyrimidin-6-yl)phenyl)ethynyl)pyrrolidin-2-one] the same measures were 6.1 nM and 600 nM.
Turning to `CN1CC[C@@](O)(C#Cc2cccc(-c3ccc4ncnc(N5CC(C)(C)C5)c4n3)c2)C1=O` [Example 226, (R)-3-((3-(4-(3,3-Dimethylazetidin-1-yl)pyrido[3,2-d]pyrimidin-6-yl)phenyl)ethynyl)-3-hydroxy-1-methylpyrrolidin-2-one], the figures for the IC50 in assay [1] and in assay [2] were 42 nM and 1400 nM, respectively.
For `CCNc1ncnc2ccc(-c3cccc(C#C[C@]4(O)CCN(C)C4=O)c3)nc12` [Example 227, (R)-3-((3-(4-(Ethylamino)pyrido[3,2-d]pyrimidin-6-yl)phenyl)ethynyl)-3-hydroxy-1-methylpyrrolidin-2-one] the same measures were 23 nM and 540 nM.
For `CN1CC[C@@](O)(C#Cc2cccc(-c3ccc4ncnc(N5CC(O)C5)c4n3)c2)C1=O` [Example 228, (R)-3-Hydroxy-3-((3-(4-(3-hydroxyazetidin-1-yl)pyrido[3,2-d]pyrimidin-6-yl)phenyl)ethynyl)-1-methylpyrrolidin-2-one] the same measures were 4.8 nM and 300 nM.
For `CN1CC[C@@](O)(C#Cc2cccc(-c3ccc4ncnc(NC5COC5)c4n3)c2)C1=O` [Example 229, (R)-3-Hydroxy-1-methyl-3-((3-(4-(oxetan-3-ylamino)pyrido[3,2-d]pyrimidin-6-yl)phenyl)ethynyl)pyrrolidin-2-one] the same measures were 110 nM and 1910 nM.
Turning to `CN1CC[C@](O)(C#Cc2cccc(-c3ccc4ncnc(N5CCC5)c4n3)c2)C1=O` [Example 231, (S)-3-((3-(4-(Azetidin-1-yl)pyrido[3,2-d]pyrimidin-6-yl)phenyl)ethynyl)-3-hydroxy-1-methylpyrrolidin-2-one], the half-maximal inhibitory concentration (IC50) in assay [1] is 340 nM; in assay [2], more than 5000 nM.
For `CN1CC[C@@](O)(C#Cc2cccc(-c3ccc4ncnc(N5CC(F)(F)C5)c4n3)c2)C1=O` [Example 232, (R)-3-((3-(4-(3,3-Difluoroazetidin-1-yl)pyrido[3,2-d]pyrimidin-6-yl)phenyl)ethynyl)-3-hydroxy-1-methylpyrrolidin-2-one] the same measures were 5.7 nM and 210 nM.
The corresponding values for `CN1CC[C@@](O)(C#Cc2cccc(-c3ccc4ccnc(N5CCC5)c4n3)c2)C1=O` [Example 233, (R)-3-((3-(8-(Azetidin-1-yl)-1,7-naphthyridin-2-yl)phenyl)ethynyl)-3-hydroxy-1-methylpyrrolidin-2-one] are 520 nM and more than 5000 nM.
The corresponding values for `CN1CC[C@@](O)(C#Cc2cccc(-c3ccc4ccnc(N5CCC5)c4c3)c2)C1=O` [Example 234, (R)-3-((3-(1-(Azetidin-1-yl)isoquinolin-7-yl)phenyl)ethynyl)-3-hydroxy-1-methylpyrrolidin-2-one] are 1800 nM and more than 5000 nM.
As for `CN1CC[C@@](O)(C#Cc2cccc(-c3ccc4nccc(N5CCC5)c4c3)c2)C1=O` [Example 235, (R)-3-((3-(4-(Azetidin-1-yl)quinolin-6-yl)phenyl)ethynyl)-3-hydroxy-1-methylpyrrolidin-2-one], the IC50 in assay [1] is 2950 nM; in assay [2], more than 5000 nM.
The corresponding values for `CN1CC[C@@](O)(C#Cc2cccc(-c3ccc4ncnc(NC5CCC5)c4n3)c2)C1=O` [Example 236, (R)-3-((3-(4-(Cyclobutylamino)pyrido[3,2-d]pyrimidin-6-yl)phenyl)ethynyl)-3-hydroxy-1-methylpyrrolidin-2-one] are 57 nM and 1370 nM.
Regarding `Cc1nc(N)c2nc(-c3cc(C#C[C@]4(O)CCN(C)C4=O)ccc3OC(F)(F)F)ccc2n1` [Example 237, (R)-3-((3-(4-Amino-2-methylpyrido[3,2-d]pyrimidin-6-yl)-4-(trifluoromethoxy)phenyl)ethynyl)-3-hydroxy-1-methylpyrrolidin-2-one], the concentration for half-maximal inhibition (IC50) was determined as 9.2 nM in assay [1] and 240 nM in assay [2].
For `CN1CC[C@@](O)(C#Cc2cccc(-c3ccc4ncnc(N5CC(F)C5)c4n3)c2)C1=O` [Example 239, (R)-3-((3-(4-(3-Fluoroazetidin-1-yl)pyrido[3,2-d]pyrimidin-6-yl)phenyl)ethynyl)-3-hydroxy-1-methylpyrrolidin-2-one] the same measures were 1.5 nM and 69 nM.
For `CN1CC[C@@](O)(C#Cc2cccc(-c3ccc4ncnc(NCC#N)c4n3)c2)C1=O` [Example 240, (R)-2-((6-(3-((3-Hydroxy-1-methyl-2-oxopyrrolidin-3-yl)ethynyl)phenyl)pyrido[3,2-d]pyrimidin-4-yl)amino)acetonitrile] the same measures were 21 nM and 570 nM.
For `CN1CC[C@@](O)(C#Cc2cccc(-c3ccc4ncnc(NCC(F)F)c4n3)c2)C1=O` [Example 241, (R)-3-((3-(4-((2,2-Difluoroethyl)amino)pyrido[3,2-d]pyrimidin-6-yl)phenyl)ethynyl)-3-hydroxy-1-methylpyrrolidin-2-one] the same measures were 56 nM and 930 nM.
`CN1CC[C@@](O)(C#Cc2cccc(-c3ccc4ncnc(N5CC(C#N)C5)c4n3)c2)C1=O` [Example 242, (R)-1-(6-(3-((3-Hydroxy-1-methyl-2-oxopyrrolidin-3-yl)ethynyl)phenyl)pyrido[3,2-d]pyrimidin-4-yl)azetidine-3-carbonitrile]: the values for the IC50 in assay [1] and in assay [2] were 7.4 nM and 320 nM, respectively.

The record behind these values is patent US20240199605A1, “SMALL MOLECULAR INHIBITORS OF NF-kB INDUCING KINASE” (Janssen Pharmaceutica NV, priority 2019, published 2024).
